The results in this text go back to ChEMBL document CHEMBL4190286, “Modulating the Serotonin Receptor Spectrum of Pulicatin Natural Products” (J Nat Prod, 2017).

The source made the active and inactive calls. No cut-off for these calls is given here. Some results are limits rather than exact numbers.

As usually defined, the Ki is the dissociation constant of the complex between target and ligand, obtained from inhibition or displacement. High values mean weaker binding, low ones tighter binding. Broadly, the IC50 is the midpoint of a concentration-inhibition curve.

T1 sequence (P41595 whole entry): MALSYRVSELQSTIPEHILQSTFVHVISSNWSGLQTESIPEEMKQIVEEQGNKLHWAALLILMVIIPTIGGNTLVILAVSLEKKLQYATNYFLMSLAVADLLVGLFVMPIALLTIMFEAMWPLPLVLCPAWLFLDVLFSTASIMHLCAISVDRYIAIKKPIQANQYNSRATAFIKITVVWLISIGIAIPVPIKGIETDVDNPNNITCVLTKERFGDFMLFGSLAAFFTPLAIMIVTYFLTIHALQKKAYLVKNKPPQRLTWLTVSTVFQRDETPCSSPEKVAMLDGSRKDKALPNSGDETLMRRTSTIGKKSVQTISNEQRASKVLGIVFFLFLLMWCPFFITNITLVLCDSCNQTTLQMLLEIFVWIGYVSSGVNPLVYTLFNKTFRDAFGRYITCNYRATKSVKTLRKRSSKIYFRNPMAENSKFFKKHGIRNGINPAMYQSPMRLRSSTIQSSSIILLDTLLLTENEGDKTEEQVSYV
Sequence of 5-hydroxytryptamine receptor 7 (P34969 whole entry): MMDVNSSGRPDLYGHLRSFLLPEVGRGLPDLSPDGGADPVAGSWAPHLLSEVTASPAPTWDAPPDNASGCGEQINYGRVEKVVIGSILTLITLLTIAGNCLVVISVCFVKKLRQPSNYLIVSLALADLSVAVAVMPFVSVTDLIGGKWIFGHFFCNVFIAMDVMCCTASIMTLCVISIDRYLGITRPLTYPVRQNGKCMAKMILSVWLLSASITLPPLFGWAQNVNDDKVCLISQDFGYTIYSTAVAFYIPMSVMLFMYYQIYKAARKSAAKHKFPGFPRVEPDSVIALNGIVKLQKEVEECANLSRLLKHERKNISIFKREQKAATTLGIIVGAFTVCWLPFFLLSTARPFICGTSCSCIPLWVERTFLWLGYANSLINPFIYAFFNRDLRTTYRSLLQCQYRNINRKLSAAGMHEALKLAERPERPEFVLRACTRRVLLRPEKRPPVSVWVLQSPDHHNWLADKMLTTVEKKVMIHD
Sequence of 5-hydroxytryptamine receptor 1E (P28566 whole entry): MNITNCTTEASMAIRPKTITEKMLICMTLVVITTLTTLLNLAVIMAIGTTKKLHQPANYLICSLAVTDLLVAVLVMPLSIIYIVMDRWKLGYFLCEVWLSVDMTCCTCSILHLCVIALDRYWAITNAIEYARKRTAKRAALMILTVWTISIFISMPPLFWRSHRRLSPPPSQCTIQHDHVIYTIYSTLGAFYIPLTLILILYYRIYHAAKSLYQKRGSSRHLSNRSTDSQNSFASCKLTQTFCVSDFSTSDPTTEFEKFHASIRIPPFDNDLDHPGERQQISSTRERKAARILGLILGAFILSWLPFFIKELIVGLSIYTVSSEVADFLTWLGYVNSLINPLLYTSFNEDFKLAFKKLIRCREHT

The first assay deals with 5-hydroxytryptamine receptor 5A (Homo sapiens, UniProt P47898). As to the kind of experiment: Binding affinity to 5-HT5A receptor (unknown origin) by radioligand binding assay.
Sequence of 5-hydroxytryptamine receptor 5A (P47898 whole entry): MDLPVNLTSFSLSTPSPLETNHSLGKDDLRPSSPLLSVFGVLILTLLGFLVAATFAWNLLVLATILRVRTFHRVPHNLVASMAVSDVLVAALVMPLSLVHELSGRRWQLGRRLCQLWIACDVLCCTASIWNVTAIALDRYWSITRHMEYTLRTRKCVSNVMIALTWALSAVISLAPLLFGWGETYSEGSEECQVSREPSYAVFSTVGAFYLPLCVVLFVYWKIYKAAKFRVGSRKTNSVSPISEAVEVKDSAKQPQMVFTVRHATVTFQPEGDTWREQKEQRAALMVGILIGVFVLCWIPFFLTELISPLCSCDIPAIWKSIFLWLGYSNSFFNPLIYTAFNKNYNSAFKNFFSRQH
With `O=Cc1csc(-c2ccccc2O)n1`, the Ki was over 10 µM.
Still for that read-out and setting: in the case of `C[C@@H]1SC(c2ccccc2O)=N[C@@H]1CO` [PULICATIN A] it was over 10 µM.
On the same count and under the same terms, in the case of `NC(=O)c1csc(-c2ccccc2O)n1` [PULICATINS F] it was over 10 µM; in that of `C[C@@H]1SC(c2ccccc2O)=N[C@H]1[C@@H]1SC[C@](C)(C(=O)O)N1C` [WATASEMYCINS A], over 10 µM.
Still for that read-out and setting: the result for `C[C@@H]1SC(c2ccccc2O)=N[C@H]1[C@H]1SC[C@](C)(C(=O)O)N1C` [WATASEMYCINS B] reads over 10 µM.

In the next assay the target is 5-hydroxytryptamine receptor 6 (Homo sapiens, UniProt P50406). Briefly: Binding affinity to 5-HT6 receptor (unknown origin) by radioligand binding assay.
Sequence of 5-hydroxytryptamine receptor 6 (P50406 whole entry): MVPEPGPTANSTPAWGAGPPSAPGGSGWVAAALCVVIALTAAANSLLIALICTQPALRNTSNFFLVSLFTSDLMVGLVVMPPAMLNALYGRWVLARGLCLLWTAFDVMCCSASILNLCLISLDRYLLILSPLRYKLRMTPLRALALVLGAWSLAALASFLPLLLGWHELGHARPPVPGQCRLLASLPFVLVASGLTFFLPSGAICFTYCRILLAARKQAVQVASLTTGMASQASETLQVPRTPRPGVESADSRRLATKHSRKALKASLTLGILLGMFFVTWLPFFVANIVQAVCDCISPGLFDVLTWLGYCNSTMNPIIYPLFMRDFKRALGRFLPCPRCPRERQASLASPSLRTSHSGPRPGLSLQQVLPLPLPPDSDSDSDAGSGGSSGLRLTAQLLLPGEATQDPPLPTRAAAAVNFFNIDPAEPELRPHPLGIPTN
Take `O=Cc1csc(-c2ccccc2O)n1`: the inhibition constant Ki is over 10 µM.
Same read-out and setting: the result for `C[C@@H]1SC(c2ccccc2O)=N[C@@H]1CO` [PULICATIN A] reads over 10 µM.
Still for that read-out and setting: in the case of `NC(=O)c1csc(-c2ccccc2O)n1` [PULICATINS F] it was over 10 µM.
`C[C@@H]1SC(c2ccccc2O)=N[C@H]1[C@@H]1SC[C@](C)(C(=O)O)N1C` [WATASEMYCINS A] yielded a Ki of over 10 µM.
On the same count and under the same terms, in the case of `C[C@@H]1SC(c2ccccc2O)=N[C@H]1[C@H]1SC[C@](C)(C(=O)O)N1C` [WATASEMYCINS B] it was over 10 µM.

A further assay addresses 5-hydroxytryptamine receptor 7 (Homo sapiens, UniProt P34969). As to the kind of experiment: Binding affinity to 5-HT7A receptor (unknown origin) by radioligand binding assay.
For the compound `O=Cc1csc(-c2ccccc2O)n1`, the inhibition constant Ki was over 10 µM.
In turn, `C[C@@H]1SC(c2ccccc2O)=N[C@@H]1CO` [PULICATIN A] returned an inhibition constant Ki of over 10 µM.
The same measure, in the same setting: in the case of `NC(=O)c1csc(-c2ccccc2O)n1` [PULICATINS F] it was over 10 µM; in that of `C[C@@H]1SC(c2ccccc2O)=N[C@H]1[C@@H]1SC[C@](C)(C(=O)O)N1C` [WATASEMYCINS A], over 10 µM; in that of `C[C@@H]1SC(c2ccccc2O)=N[C@H]1[C@H]1SC[C@](C)(C(=O)O)N1C` [WATASEMYCINS B], over 10 µM.

The next assay has as its target T1, 5-hydroxytryptamine receptor 2B (Homo sapiens, UniProt P41595). Briefly: Displacement of [3H]-LSD from human 5-HT2B receptor expressed in baculovirus infected Sf9 cells. In general terms: Displacement assays read how much labelled ligand stays bound in the presence of the test substance.
`O=Cc1csc(-c2ccccc2O)n1` came in with a Ki of 1.5 µM.
In the case of `C[C@@H]1SC(c2ccccc2O)=N[C@H]1[C@@H]1SC[C@](C)(C(=O)O)N1C` [WATASEMYCINS A], the Ki was determined as 4.7 µM.
Same read-out and setting: the result for `C[C@@H]1SC(c2ccccc2O)=N[C@H]1[C@H]1SC[C@](C)(C(=O)O)N1C` [WATASEMYCINS B] reads 3.9 µM.

Another assay deals with 5-hydroxytryptamine receptor 1B (Homo sapiens, UniProt P28222). Briefly: Displacement of [3H]-LSD from human 5-HT1B receptor expressed in baculovirus infected Sf9 cells.
Sequence of 5-hydroxytryptamine receptor 1B (P28222 whole entry): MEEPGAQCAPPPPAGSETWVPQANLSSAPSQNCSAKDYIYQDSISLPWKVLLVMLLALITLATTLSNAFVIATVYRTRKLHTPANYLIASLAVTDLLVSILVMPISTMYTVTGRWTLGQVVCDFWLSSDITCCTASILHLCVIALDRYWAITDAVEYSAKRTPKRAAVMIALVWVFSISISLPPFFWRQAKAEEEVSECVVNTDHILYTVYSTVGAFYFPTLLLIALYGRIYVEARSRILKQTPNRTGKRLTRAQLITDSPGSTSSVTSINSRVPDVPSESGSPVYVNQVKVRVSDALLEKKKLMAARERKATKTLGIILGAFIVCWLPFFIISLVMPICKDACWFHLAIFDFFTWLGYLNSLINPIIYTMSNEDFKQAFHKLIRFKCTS
For the compound `O=Cc1csc(-c2ccccc2O)n1`, the Ki is over 10 µM.
On the same count and under the same terms, the result for `C[C@@H]1SC(c2ccccc2O)=N[C@@H]1CO` [PULICATIN A] reads over 10 µM; that for `NC(=O)c1csc(-c2ccccc2O)n1` [PULICATINS F], over 10 µM; that for `C[C@@H]1SC(c2ccccc2O)=N[C@H]1[C@@H]1SC[C@](C)(C(=O)O)N1C` [WATASEMYCINS A], over 10 µM.
The same measure, in the same setting: the result for `C[C@@H]1SC(c2ccccc2O)=N[C@H]1[C@H]1SC[C@](C)(C(=O)O)N1C` [WATASEMYCINS B] reads over 10 µM.

The target in a further assay is T1, 5-hydroxytryptamine receptor 2B. Briefly: Antagonist activity at 5-HT2B receptor (unknown origin) by calcium release assay. The format is functional.
Take `C[C@@H]1SC(c2ccccc2O)=N[C@@H]1CO` [PULICATIN A]: the IC50 turned out to be 30 µM.

For a further assay, the target named is 5-hydroxytryptamine receptor 1D (Homo sapiens, UniProt P28221). As to the kind of experiment: Binding affinity to 5-HT1D receptor (unknown origin) by radioligand binding assay.
Sequence of 5-hydroxytryptamine receptor 1D (P28221 whole entry): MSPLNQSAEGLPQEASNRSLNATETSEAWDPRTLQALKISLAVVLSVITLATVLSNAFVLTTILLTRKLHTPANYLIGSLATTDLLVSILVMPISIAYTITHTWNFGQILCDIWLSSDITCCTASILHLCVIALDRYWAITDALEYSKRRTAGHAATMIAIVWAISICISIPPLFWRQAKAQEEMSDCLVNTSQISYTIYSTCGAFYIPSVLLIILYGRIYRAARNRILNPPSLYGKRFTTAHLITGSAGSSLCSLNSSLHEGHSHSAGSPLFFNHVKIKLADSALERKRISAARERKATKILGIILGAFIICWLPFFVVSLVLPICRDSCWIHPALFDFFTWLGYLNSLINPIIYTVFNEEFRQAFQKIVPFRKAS
For `O=Cc1csc(-c2ccccc2O)n1`, the inhibition constant Ki was over 10 µM.
In turn, `C[C@@H]1SC(c2ccccc2O)=N[C@@H]1CO` [PULICATIN A] yielded an inhibition constant (Ki) of over 10 µM.
The same measure, in the same setting: in the case of `NC(=O)c1csc(-c2ccccc2O)n1` [PULICATINS F] it was over 10 µM; in that of `C[C@@H]1SC(c2ccccc2O)=N[C@H]1[C@@H]1SC[C@](C)(C(=O)O)N1C` [WATASEMYCINS A], over 10 µM.
The compound `C[C@@H]1SC(c2ccccc2O)=N[C@H]1[C@H]1SC[C@](C)(C(=O)O)N1C` [WATASEMYCINS B] had an inhibitory constant (Ki) of over 10 µM.

The target in the next assay is 5-hydroxytryptamine receptor 2A (Homo sapiens, UniProt P28223). As to the kind of experiment: Binding affinity to 5-HT2A receptor (unknown origin) by radioligand binding assay.
Sequence of 5-hydroxytryptamine receptor 2A (P28223 whole entry): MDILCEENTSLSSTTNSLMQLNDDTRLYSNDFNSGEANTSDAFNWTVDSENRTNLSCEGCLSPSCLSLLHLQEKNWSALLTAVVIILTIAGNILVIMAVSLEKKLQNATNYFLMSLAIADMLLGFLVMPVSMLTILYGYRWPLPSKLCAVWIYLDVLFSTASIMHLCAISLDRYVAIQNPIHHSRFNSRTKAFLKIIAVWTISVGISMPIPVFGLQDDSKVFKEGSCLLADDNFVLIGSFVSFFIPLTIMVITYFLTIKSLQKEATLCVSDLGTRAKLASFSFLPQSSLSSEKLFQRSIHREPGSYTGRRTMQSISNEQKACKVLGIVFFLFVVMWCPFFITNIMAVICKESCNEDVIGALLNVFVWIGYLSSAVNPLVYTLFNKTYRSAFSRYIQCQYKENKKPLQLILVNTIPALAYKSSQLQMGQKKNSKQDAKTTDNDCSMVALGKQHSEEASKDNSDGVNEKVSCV
Regarding `O=Cc1csc(-c2ccccc2O)n1`, the Ki was over 10 µM.
The same measure, in the same setting: the result for `C[C@@H]1SC(c2ccccc2O)=N[C@@H]1CO` [PULICATIN A] reads over 10 µM; that for `NC(=O)c1csc(-c2ccccc2O)n1` [PULICATINS F], over 10 µM.
The same measure, in the same setting: the result for `C[C@@H]1SC(c2ccccc2O)=N[C@H]1[C@@H]1SC[C@](C)(C(=O)O)N1C` [WATASEMYCINS A] reads over 10 µM; that for `C[C@@H]1SC(c2ccccc2O)=N[C@H]1[C@H]1SC[C@](C)(C(=O)O)N1C` [WATASEMYCINS B], over 10 µM.

A further assay addresses T2, 5-hydroxytryptamine receptor 2C (Homo sapiens, UniProt P28335).
T2 sequence (P28335 whole entry): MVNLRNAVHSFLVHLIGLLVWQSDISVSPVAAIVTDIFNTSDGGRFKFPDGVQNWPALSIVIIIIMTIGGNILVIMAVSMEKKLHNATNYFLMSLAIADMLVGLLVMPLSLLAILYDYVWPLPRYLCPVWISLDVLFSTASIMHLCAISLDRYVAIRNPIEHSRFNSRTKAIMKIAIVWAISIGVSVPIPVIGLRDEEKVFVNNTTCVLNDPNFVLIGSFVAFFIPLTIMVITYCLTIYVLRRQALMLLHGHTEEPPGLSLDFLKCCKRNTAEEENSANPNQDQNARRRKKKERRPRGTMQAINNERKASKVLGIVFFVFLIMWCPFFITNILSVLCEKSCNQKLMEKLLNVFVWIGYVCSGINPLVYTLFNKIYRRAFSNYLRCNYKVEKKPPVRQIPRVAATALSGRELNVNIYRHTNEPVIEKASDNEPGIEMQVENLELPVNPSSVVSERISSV
As to the kind of experiment: Binding affinity to 5-HT2C receptor (unknown origin) by radioligand binding assay.
With `O=Cc1csc(-c2ccccc2O)n1`, the Ki is over 10 µM.
Same read-out and setting: the result for `C[C@@H]1SC(c2ccccc2O)=N[C@@H]1CO` [PULICATIN A] reads over 10 µM.
The same measure, in the same setting: the result for `NC(=O)c1csc(-c2ccccc2O)n1` [PULICATINS F] reads over 10 µM.
For the compound `C[C@@H]1SC(c2ccccc2O)=N[C@H]1[C@@H]1SC[C@](C)(C(=O)O)N1C` [WATASEMYCINS A], the inhibition constant Ki is over 10 µM.
On the same count and under the same terms, the result for `C[C@@H]1SC(c2ccccc2O)=N[C@H]1[C@H]1SC[C@](C)(C(=O)O)N1C` [WATASEMYCINS B] reads over 10 µM.

In a further assay the target is T1, 5-hydroxytryptamine receptor 2B. As to the kind of experiment: Agonist activity at 5-HT2B receptor (unknown origin) by calcium release assay. The format is functional.
As to `C[C@@H]1SC(c2ccccc2O)=N[C@@H]1CO` [PULICATIN A], the outcome was inactive.

The target is the same in another assay. As to the kind of experiment: Ratio of IC50 for antagonist activity at 5-HT2B receptor (unknown origin) by calcium release assay to Ki for displacement of [3H]-LSD from human 5-HT2B receptor expressed in baculovirus infected Sf9 cells. The format is functional.
With `C[C@@H]1SC(c2ccccc2O)=N[C@@H]1CO` [PULICATIN A], the Ratio was 50 to 140.

The next assay has as its target 5-hydroxytryptamine receptor 1E (Homo sapiens, UniProt P28566). Briefly: Binding affinity to 5-HT1E receptor (unknown origin) by radioligand binding assay.
The compound `O=Cc1csc(-c2ccccc2O)n1` returned a Ki of over 10 µM.
The same measure, in the same setting: in the case of `C[C@@H]1SC(c2ccccc2O)=N[C@@H]1CO` [PULICATIN A] it was over 10 µM; in that of `NC(=O)c1csc(-c2ccccc2O)n1` [PULICATINS F], over 10 µM.
Same read-out and setting: the result for `C[C@@H]1SC(c2ccccc2O)=N[C@H]1[C@@H]1SC[C@](C)(C(=O)O)N1C` [WATASEMYCINS A] reads over 10 µM; that for `C[C@@H]1SC(c2ccccc2O)=N[C@H]1[C@H]1SC[C@](C)(C(=O)O)N1C` [WATASEMYCINS B], over 10 µM.

The target of a further assay is T3, 5-hydroxytryptamine receptor 3A (Homo sapiens, UniProt P46098).
T3 sequence (P46098 whole entry): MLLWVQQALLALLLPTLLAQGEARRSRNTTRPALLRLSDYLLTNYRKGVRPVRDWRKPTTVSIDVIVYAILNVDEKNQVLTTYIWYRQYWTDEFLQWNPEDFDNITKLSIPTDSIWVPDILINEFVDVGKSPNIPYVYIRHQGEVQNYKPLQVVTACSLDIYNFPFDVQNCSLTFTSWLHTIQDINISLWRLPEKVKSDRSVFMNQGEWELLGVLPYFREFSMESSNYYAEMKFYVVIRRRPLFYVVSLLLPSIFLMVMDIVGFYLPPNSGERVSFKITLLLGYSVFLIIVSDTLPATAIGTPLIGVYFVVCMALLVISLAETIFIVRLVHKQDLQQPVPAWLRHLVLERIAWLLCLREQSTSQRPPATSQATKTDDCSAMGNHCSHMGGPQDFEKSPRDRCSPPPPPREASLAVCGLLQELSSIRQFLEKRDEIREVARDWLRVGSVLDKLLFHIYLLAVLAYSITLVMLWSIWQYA
As to the kind of experiment: Binding affinity to 5-HT3 receptor (unknown origin) by radioligand binding assay.
The compound `O=Cc1csc(-c2ccccc2O)n1` came in with a Ki of over 10 µM.
As to `C[C@@H]1SC(c2ccccc2O)=N[C@@H]1CO` [PULICATIN A], the Ki was over 10 µM.
For `NC(=O)c1csc(-c2ccccc2O)n1` [PULICATINS F], the Ki is over 10 µM.
The same measure, in the same setting: the result for `C[C@@H]1SC(c2ccccc2O)=N[C@H]1[C@@H]1SC[C@](C)(C(=O)O)N1C` [WATASEMYCINS A] reads over 10 µM; that for `C[C@@H]1SC(c2ccccc2O)=N[C@H]1[C@H]1SC[C@](C)(C(=O)O)N1C` [WATASEMYCINS B], over 10 µM.
